How the values were obtained:
[1] = Effects of pH on isomerization at 40° C. (Example 5); type: physicochemical
[2] = Isomerization of 4-hydroxy tamoxifen in hydroalcoholic solutions at 25°, 30° and 40° C., Z/E isomers by HPLC (Example 1); type: physicochemical
Procedure: Hydroalcoholic solutions containing 4-hydroxy tamoxifen were prepared, based on the following gel formula: […]
In the hydroalcoholic solutions, phosphate buffer was substituted for Klucel. The composition of the buffer was as follows:
At each of the stated concentrations, separate solutions containing Z-4-hydroxy tamoxifen or a mixture of Z- and E-4-hydroxy tamoxifen were prepared.
Each solution was subdivided into three parts in 30 ml brown glass bottles, then placed in ovens regulated at 25°, 30°, and 40° C.
The relative amounts of Z- and E-4-hydroxy tamoxifen isomers were determined at the initiation of the study and at 2-week, 1-month, 2-month, 3-month, 4-month and 5-month time points.
Operating parameters for the HPLC were as follows:
The order of elution was as follows: • 4-OHT E: retention time about 13.3 min • 4-OHT Z: retention time about 15.0 min.
Percentages of each isomer were calculated using the following formulas: [formula] [formula] D. Data fitting:
The reversible isomerization reaction and the equilibrium reaches are lied by the following relationship: [formula] where • A0=initial concentration of the reagent • Aeq=concentration of the same reagent at equilibrium • A=the concentration of A at time t • kf=forward rate constant • kr=reverse rate constant • t=time measured in months
A plot of log [formula] as a function of time gives a straight line fit with a slope of [formula] and a y-intercept of 0. E. Results

[3] = Initial E/Z 37/63, Buffer pH 2.2, Final pH 4, Day
[4] = Initial E/Z 37/63, Buffer pH 2.2, Final pH 4, Day 8
[5] = Initial E/Z 37/63, Buffer pH 2.2, Final pH 4, Mo. 1
[6] = Initial E/Z 37/63, Buffer pH 2.2, Final pH 4, Mo. 2
[7] = Initial E/Z 37/63, Buffer pH 2.2, Final pH 4, Mo. 3
[8] = Initial E/Z 37/63, Buffer pH 4, Final pH 6, Day
[9] = Initial E/Z 37/63, Buffer pH 4, Final pH 6, Day 8
[10] = Initial E/Z 37/63, Buffer pH 4, Final pH 6, Mo. 1
[11] = Initial E/Z 37/63, Buffer pH 4, Final pH 6, Mo. 2
[12] = Initial E/Z 37/63, Buffer pH 4, Final pH 6, Mo. 3
[13] = Initial E/Z 37/63, Buffer pH 4, Final pH 6, Time 0
[14] = Initial E/Z 37/63, Buffer pH 6, Final pH 7, Day
[15] = Initial E/Z 37/63, Buffer pH 6, Final pH 7, Day 8
[16] = Initial E/Z 37/63, Buffer pH 6, Final pH 7, Mo. 1
[17] = Initial E/Z 37/63, Buffer pH 6, Final pH 7, Mo. 2
[18] = Initial E/Z 37/63, Buffer pH 6, Final pH 7, Mo. 3
[19] = Initial E/Z 37/63, Buffer pH 6, Final pH 7, Time 0
[20] = Initial E/Z 37/63, Buffer pH 8, Final pH 9, Day
[21] = Initial E/Z 37/63, Buffer pH 8, Final pH 9, Day 8
[22] = Initial E/Z 37/63, Buffer pH 8, Final pH 9, Mo. 1
[23] = Initial E/Z 37/63, Buffer pH 8, Final pH 9, Mo. 2
[24] = Initial E/Z 37/63, Buffer pH 8, Final pH 9, Mo. 3
[25] = Initial E/Z 37/63, Buffer pH 8, Final pH 9, Time 0
[26] = Initial E/Z 37/63, Buffer pH 10, Final pH 12, Day
[27] = Initial E/Z 37/63, Buffer pH 10, Final pH 12, Day 8
[28] = Initial E/Z 37/63, Buffer pH 10, Final pH 12, Mo. 1
[29] = Initial E/Z 37/63, Buffer pH 10, Final pH 12, Mo. 2
[30] = Initial E/Z 37/63, Buffer pH 10, Final pH 12, Mo. 3
[31] = Initial E/Z 37/63, Buffer pH 10, Final pH 12, Time 0
[32] = Initial E/Z 100/0, Buffer pH 2.2, Final pH 4, Day
[33] = Initial E/Z 100/0, Buffer pH 2.2, Final pH 4, Day 8
[34] = Initial E/Z 100/0, Buffer pH 2.2, Final pH 4, Mo. 1
[35] = Initial E/Z 100/0, Buffer pH 2.2, Final pH 4, Mo. 2
[36] = Initial E/Z 100/0, Buffer pH 2.2, Final pH 4, Mo. 3
[37] = Initial E/Z 100/0, Buffer pH 4, Final pH 6, Day
[38] = Initial E/Z 100/0, Buffer pH 4, Final pH 6, Day 8
[39] = Initial E/Z 100/0, Buffer pH 4, Final pH 6, Mo. 1
[40] = Initial E/Z 100/0, Buffer pH 4, Final pH 6, Mo. 2
[41] = Initial E/Z 100/0, Buffer pH 4, Final pH 6, Mo. 3
[42] = Initial E/Z 100/0, Buffer pH 4, Final pH 6, Time 0
[43] = Initial E/Z 100/0, Buffer pH 6, Final pH 7, Day
[44] = Initial E/Z 100/0, Buffer pH 6, Final pH 7, Day 8
[45] = Initial E/Z 100/0, Buffer pH 6, Final pH 7, Mo. 1
[46] = Initial E/Z 100/0, Buffer pH 6, Final pH 7, Mo. 2
[47] = Initial E/Z 100/0, Buffer pH 6, Final pH 7, Mo. 3
[48] = Initial E/Z 100/0, Buffer pH 6, Final pH 7, Time 0
[49] = Initial E/Z 100/0, Buffer pH 8, Final pH 9, Day
[50] = Initial E/Z 100/0, Buffer pH 8, Final pH 9, Day 8
[51] = Initial E/Z 100/0, Buffer pH 8, Final pH 9, Mo. 1
[52] = Initial E/Z 100/0, Buffer pH 8, Final pH 9, Mo. 2
[53] = Initial E/Z 100/0, Buffer pH 8, Final pH 9, Mo. 3
[54] = Initial E/Z 100/0, Buffer pH 8, Final pH 9, Time 0
[55] = Initial E/Z 100/0, Buffer pH 10, Final pH 12, Day
[56] = Initial E/Z 100/0, Buffer pH 10, Final pH 12, Day 8
[57] = Initial E/Z 100/0, Buffer pH 10, Final pH 12, Mo. 1
[58] = Initial E/Z 100/0, Buffer pH 10, Final pH 12, Mo. 2
[59] = Initial E/Z 100/0, Buffer pH 10, Final pH 12, Mo. 3
[60] = Initial E/Z 100/0, Buffer pH 10, Final pH 12, Time 0

## CCC(=C(c1ccc(O)cc1)c1ccc(OCCN(C)C)cc1)c1ccccc1 [4-hydroxy tamoxifen, 1-[4-(2-N-dimethylaminoethoxy)phenyl]-1-(4-hydroxyphenyl)-2-phenylbut-1-ene]
[1]
  effect of pH on the equilibration process: Low and high pH speed the equilibration process
[1]; [3]
  % E: 48.5%
  % Z: 51.5%
[1]; [4]
  % E: 52.5%
  % Z: 47.5%
[1]; [5]
  % E: 48.2%
  % Z: 51.8%
[1]; [6]
  % E: 48.0%
  % Z: 52.0%
[1]; [7]
  % E: 48.0%
  % Z: 52.0%
[1]; Initial E/Z 37/63, Buffer pH 2.2, Final pH 4, Time 0
  % Z: 37.1%
[1]; [8]
  % E: 51.0%
  % Z: 49.0%
[1]; [9]
  % E: 56.8%
  % Z: 43.2%
[1]; [10]
  % E: 49.4%
  % Z: 50.6%
[1]; [11]
  % E: 49.0%
  % Z: 51.0%
[1]; [12]
  % E: 48.5%
  % Z: 51.5%
[1]; [13]
  % E: 62.9%
  % Z: 37.1%
[1]; [14]
  % E: 58.0%
  % Z: 42.0%
[1]; [15]
  % E: 61.1%
  % Z: 38.9%
[1]; [16]
  % E: 55.8%
  % Z: 44.2%
[1]; [17]
  % E: 52.0%
  % Z: 48.0%
[1]; [18]
  % E: 50.4%
  % Z: 49.6%
[1]; [19]
  % E: 62.5%
  % Z: 37.5%
[1]; [20]
  % E: 56.9%
  % Z: 43.1%
[1]; [21]
  % E: 60.6%
  % Z: 39.4%
[1]; [22]
  % E: 54.2%
  % Z: 45.8%
[1]; [23]
  % E: 50.8%
  % Z: 49.2%
[1]; [24]
  % E: 49.9%
  % Z: 50.1%
[1]; [25]
  % E: 62.7%
  % Z: 37.3%
[1]; [26]
  % E: 49.0%
  % Z: 51.0%
[1]; [27]
  % E: 48.5%
  % Z: 51.5%
[1]; [28]
  % E: 49.0%
  % Z: 51.0%
[1]; [29]
  % E: 48.8%
  % Z: 51.2%
[1]; [30]
  % E: 49.0%
  % Z: 51.0%
[1]; [31]
  % E: 63.4%
  % Z: 36.6%
[1]; [32]
  % E: 45.9%
  % Z: 54.1%
[1]; [33]
  % E: 29.0%
  % Z: 71.0%
[1]; [34]
  % E: 47.4%
  % Z: 52.6%
[1]; [35]
  % E: 48.0%
  % Z: 52.0%
[1]; [36]
  % E: 47.7%
  % Z: 52.3%
[1]; Initial E/Z 100/0, Buffer pH 2.2, Final pH 4, Time 0
  % Z: 100.0%
[1]; [37]
  % E: 34.3%
  % Z: 65.7%
[1]; [38]
  % E: 12.5%
  % Z: 87.5%
[1]; [39]
  % E: 43.2%
  % Z: 56.8%
[1]; [40]
  % E: 48.1%
  % Z: 51.9%
[1]; [41]
  % E: 48.5%
  % Z: 51.5%
[1]; [42]
  % E: 0.0%
  % Z: 100.0%
[1]; [43]
  % E: 9.6%
  % Z: 90.4%
[1]; [44]
  % E: 2.9%
  % Z: 97.1%
[1]; [45]
  % E: 16.6%
  % Z: 83.4%
[1]; [46]
  % E: 31.3%
  % Z: 68.6%
[1]; [47]
  % E: 40.8%
  % Z: 59.2%
[1]; [48]
  % E: 0.0%
  % Z: 100.0%
[1]; [49]
  % E: 11.6%
  % Z: 88.4%
[1]; [50]
  % E: 3.4%
  % Z: 96.6%
[1]; [51]
  % E: 20.6%
  % Z: 79.4%
[1]; [52]
  % E: 36.4%
  % Z: 63.6%
[1]; [53]
  % E: 44.1%
  % Z: 55.9%
[1]; [54]
  % E: 0.0%
  % Z: 100.0%
[1]; [55]
  % E: 48.8%
  % Z: 51.2%
[1]; [56]
  % E: 48.3%
  % Z: 51.7%
[1]; [57]
  % E: 48.8%
  % Z: 51.2%
[1]; [58]
  % E: 48.8%
  % Z: 51.2%
[1]; [59]
  % E: 48.9%
  % Z: 51.1%
[1]; [60]
  % E: 0.0%
  % Z: 100.0%
[1]; Initial E/Z ratios of 37/63, Buffer pH 2.2, Final pH 4, Time 0
  % E: 62.9%
[1]; Initial E/Z ratios of 100/0, Buffer pH 2.2, Final pH 4, Time 0
  % E: 0.0%
[2]
  magnitude of the rate constants for the reversible isomerism as nominal concentration varied from 0.02% to 0.10%: increased linearly

— patent publication US20050208139A1 (Ascend Therapeutics, Inc., priority 2004, published 2005)
